Source: patent US9815831B2, “3,5-disubstituted-3H-imidazo[4,5-B]pyridine and 3,5-disubstituted-3H-[1,2,3]triazolo[4,5-B] pyridine compounds as modulators of c-Met protein kinases” (Rhizen Pharmaceuticals SA, priority 2012, dated 2017)
Where two headings read alike, the source gives them in different places. Blank lines part the entries; values can stand above or below the molecule they belong to.

Key:
[1] = biological target: T1, human recombinant Met kinase (Homo sapiens, UniProt P08581); test: Colorimetric determination of c-Met kinase activity (HTScan Met Kinase Assay Kit); type: biochemical; details: for inhibition: cells marked *: tested @ 300 nM, read-out: c-Met Enzyme % inhibition; for inhibition at 0.1 µM: 100 nM (cells without *), read-out: c-Met Enzyme % inhibition @ 100 nM
T1 construct: purchased Cell Signalling Technology, Beverly, Mass
T1 sequence (P08581 25-1390): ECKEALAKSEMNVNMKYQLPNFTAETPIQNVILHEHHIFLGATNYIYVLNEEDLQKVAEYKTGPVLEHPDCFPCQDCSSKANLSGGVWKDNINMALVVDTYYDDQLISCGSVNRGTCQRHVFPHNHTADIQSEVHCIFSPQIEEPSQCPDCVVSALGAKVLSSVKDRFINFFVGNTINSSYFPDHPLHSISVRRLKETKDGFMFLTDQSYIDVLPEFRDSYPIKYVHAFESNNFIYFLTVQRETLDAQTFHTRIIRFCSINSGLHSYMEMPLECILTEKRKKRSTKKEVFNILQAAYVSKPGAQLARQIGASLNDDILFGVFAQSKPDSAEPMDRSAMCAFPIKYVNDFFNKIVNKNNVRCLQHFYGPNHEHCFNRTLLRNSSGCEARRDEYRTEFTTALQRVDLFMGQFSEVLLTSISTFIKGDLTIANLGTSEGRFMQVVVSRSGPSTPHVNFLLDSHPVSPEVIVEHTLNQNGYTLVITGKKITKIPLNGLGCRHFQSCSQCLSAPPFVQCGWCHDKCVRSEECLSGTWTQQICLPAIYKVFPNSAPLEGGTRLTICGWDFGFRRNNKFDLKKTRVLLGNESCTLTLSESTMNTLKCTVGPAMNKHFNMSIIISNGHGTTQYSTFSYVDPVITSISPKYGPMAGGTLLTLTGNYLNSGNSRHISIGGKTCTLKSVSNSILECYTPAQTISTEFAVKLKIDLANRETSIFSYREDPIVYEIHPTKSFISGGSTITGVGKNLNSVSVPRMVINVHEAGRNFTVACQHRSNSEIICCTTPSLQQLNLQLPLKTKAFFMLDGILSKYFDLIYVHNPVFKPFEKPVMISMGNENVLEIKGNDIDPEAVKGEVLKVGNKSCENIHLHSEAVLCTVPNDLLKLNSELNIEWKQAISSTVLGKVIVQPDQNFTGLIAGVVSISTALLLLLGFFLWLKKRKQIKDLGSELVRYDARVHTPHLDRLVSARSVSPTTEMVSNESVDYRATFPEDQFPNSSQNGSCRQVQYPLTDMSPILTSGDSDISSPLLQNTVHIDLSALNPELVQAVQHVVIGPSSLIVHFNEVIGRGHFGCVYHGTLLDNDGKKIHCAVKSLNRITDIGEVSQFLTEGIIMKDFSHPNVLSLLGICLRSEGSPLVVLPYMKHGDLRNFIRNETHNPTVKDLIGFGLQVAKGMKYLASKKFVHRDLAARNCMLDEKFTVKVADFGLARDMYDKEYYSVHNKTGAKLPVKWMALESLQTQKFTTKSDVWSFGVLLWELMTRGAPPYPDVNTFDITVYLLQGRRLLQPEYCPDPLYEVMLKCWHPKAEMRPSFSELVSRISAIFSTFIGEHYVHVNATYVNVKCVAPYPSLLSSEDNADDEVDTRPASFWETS
Outline: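 Human recombinant Met kinase was preincubated with compound for 5 min at room temperature, then reacted with ATP and biotinylated peptide for 30 min; EDTA stop. Phosphopeptide captured on streptavidin and detected with phospho-tyrosine mAb and europium anti-mouse IgG by time-resolved fluorescence (340/615 nm). Reported as % inhibition or IC50.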

MKN-45 = test: Inhibition of MKN-45 proliferation (MTT); type: cell-based, human; details: Homo sapiens, MKN-45 proliferation; for GI50: read-out: MKN45 GI50; for inhibition at 0.1 µM: 100 nM, read-out: MKN45 % inhibition @ 100 nM
Outline: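 High-Met human gastric adenocarcinoma MKN-45 cells plated on day 1 and exposed to compound from day 2. Viability measured by MTT dye reduction on day 5; output given as % inhibition at 100 nM and GI50.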

[2] = biological target: T1, human recombinant Met kinase; test: Colorimetric determination of c-Met kinase activity (HTScan Met Kinase Assay Kit); type: biochemical; details: read-out: c-Met Enzyme IC50

inhibition ([1]; Table 4A): 75 to 100%
GI50 (MKN-45; MKN-45, Table 4A): 50 to 100 nM
IC50 ([2]; Table 4A): 25 to 50 nM
Compound: C/C(=N\OCCO)c1ccc2nnn(Cc3cc4cccnc4cc3F)c2n1 [Example 61, 1-(3-((7-fluoroquinolin-6-yl)methyl)-3H-[1,2,3]triazolo[4,5-b]pyridin-5-yl) ethanone O-2-hydroxyethyl oxime]

inhibition at 0.1 µM ([1]; Table 4C): < 25%
melting point: 118 to 120 °C
Compound: CNC(=O)c1ccc(-c2ccc3ncn(Cc4ccc5ncccc5c4)c3n2)cc1C [Example 1030, 2,N-Dimethyl-4-(3-quinolin-6-ylmethyl-3H-imidazo[4,5-b]pyridin-5-yl)-benzamide]

inhibition ([1]; Table 4C): 75 to 100%
GI50 (MKN-45; MKN-45, Table 4C): < 25 nM
IC50 ([2]; Table 4C): < 25 nM
Compound: NC(=O)c1ccc(-c2ccc3ncn(Cc4c(F)cc5ncccc5c4F)c3n2)cc1Cl [Example 1023, 2-chloro-4-(3-((5,7-difluoroquinolin-6-yl)methyl)-3H-imidazo[4,5-b]pyridin-5-yl)benzamide]
inhibition at 0.1 µM (MKN-45; MKN-45, Table 4C): 50 to 75%

inhibition at 0.1 µM ([1]; Table 4A): 75 to 100%
melting point: 130 to 133 °C
Compound: CC(C)(C)C(=O)OCCONC(=O)c1ccc(-c2ccc3nnn(Cc4ccc5ncccc5c4)c3n2)cc1Cl [Example 14, 2-(2-chloro-4-(3-(quinolin-6-ylmethyl)-3H-[1,2,3]triazolo[4,5-b]pyridin-5-yl)benzamidooxy)ethyl pivalate]

inhibition at 0.1 µM ([1]; Table 4A): 75 to 100%
melting point: 148 to 150 °C
Compound: CC(C)(CO)ONC(=O)c1ccc(-c2ccc3nnn(Cc4ccc5ncccc5c4)c3n2)cc1Cl [Example 40, 2-chloro-N-(1-hydroxy-2-methylpropan-2-yloxy)-4-(3-(quinolin-6-ylmethyl)-3H-[1,2,3]triazolo[4,5-b]pyridin-5-yl)benzamide]

inhibition at 0.1 µM ([1]; Table 4C): < 25%
melting point: 219 to 221 °C
Compound: CNC(=O)c1ccc(-c2ccc3ncn(Cc4ccc5ncccc5c4)c3n2)cn1 [Example 1031, 5-(3-Quinolin-6-ylmethyl-3H-imidazo[4,5-b]pyridin-5-yl)-pyridine-2-carboxylic acid methylamide]

inhibition ([1]; Table 4A): 75 to 100%
GI50 (MKN-45; MKN-45, Table 4A): 50 to 100 nM
IC50 ([2]; Table 4A): 25 to 50 nM
Compound: CON=C(C)c1ccc2nnn(Cc3cc4cccnc4cc3F)c2n1 (racemic) [Example 60, 1-(3-((7-fluoroquinolin-6-yl)methyl)-3H-[1,2,3]triazolo[4,5-b]pyridin-5-yl) ethanone O-methyl oxime]

inhibition ([1]; Table 4B): 50 to 75%
IC50 ([2]; Table 4B): 100 to 250 nM
Compound: CN(C)CCNC(=O)c1c(F)cc(-c2ccc3ncn(Cc4ccc5ncccc5c4)c3n2)cc1F [Example 104, N-(2-(dimethylamino)ethyl)-2,6-difluoro-4-(3-(quinolin-6-ylmethyl)-3H-imidazo[4,5-b]pyridin-5-yl) benzamide]
inhibition at 0.1 µM (MKN-45; MKN-45, Table 4B): < 25%

inhibition at 0.1 µM ([1]; Table 4A): 75 to 100%
melting point: 110 to 112 °C
Compound: O=C(CNC(=O)c1ccccc1)OCCONC(=O)c1ccc(-c2ccc3nnn(Cc4ccc5ncccc5c4)c3n2)cc1Cl [Example 16, 2-(2-chloro-4-(3-(quinolin-6-ylmethyl)-3H-[1,2,3]triazolo[4,5-b]pyridin-5-yl)benzamidooxy)ethyl 2-benzamidoacetate]

inhibition at 0.1 µM ([1]; Table 4B): 75 to 100%
melting point: 166 to 169 °C
Compound: C[C@H](O)CNC(=O)c1ccc(-c2ccc3ncn(Cc4ccc5ncccc5c4)c3n2)cc1F [Example 110, (S)-2-fluoro-N-(2-hydroxypropyl)-4-(3-(quinolin-6-ylmethyl)-3H-imidazo[4,5-b]pyridin-5-yl)benzamide]

inhibition at 0.1 µM ([1]; Table 4C): 75 to 100%
GI50 (MKN-45; MKN-45, Table 4C): 50 to 100 nM
IC50 ([2]; Table 4C): < 25 nM
Compound: Cc1cc(-c2ccc3ncn(Cc4cc5cccnc5cc4F)c3n2)ccc1C(N)=O [Example 1025, 4-[3-(7-Fluoro-quinolin-6-ylmethyl)-3H-imidazo[4,5-b]pyridin-5-yl]-2-methyl-benzamide]

inhibition at 0.1 µM ([1]; Table 4A): < 25%
melting point: 219 to 222 °C
Compound: Cc1ccc2cc(Cn3nnc4ccc(-c5ccc(C(=O)NOCCO)c(Cl)c5)nc43)ccc2n1 [Example 17, 2-chloro-N-(2-hydroxyethoxy)-4-(3-((2-methylquinolin-6-yl)methyl)-3H-[1,2,3]triazolo[4,5-b]pyridin-5-yl) benzamide]

inhibition ([1]; Table 4A): 75 to 100%
GI50 (MKN-45; MKN-45, Table 4A): 250 to 1000 nM
IC50 ([2]; Table 4A): 25 to 50 nM
Compound: C/C(=N\OCCN)c1ccc2nnn(Cc3ccc4ncccc4c3)c2n1 [Example 63, 1-(3-(quinolin-6-ylmethyl)-3H-[1,2,3]triazolo[4,5-b]pyridin-5-yl)ethanone O-2-aminoethyl oxime]
inhibition at 0.1 µM (MKN-45; MKN-45, Table 4A): < 25%

inhibition ([1]; Table 4A): 75 to 100%
GI50 (MKN-45; MKN-45, Table 4A): 25 to 50 nM
IC50 ([2]; Table 4A): 25 to 50 nM
Compound: C/C(=N\NC(N)=S)c1ccc2nnn(Cc3ccc4ncccc4c3)c2n1 [Example 50, 2-(1-(3-(quinolin-6-ylmethyl)-3H-[1,2,3]triazolo[4,5-b]pyridin-5-yl)ethylidene)hydrazinecarbothioamide]
inhibition at 0.1 µM (MKN-45; MKN-45, Table 4A): 75 to 100%

inhibition ([1]; Table 4C): 75 to 100%
IC50 ([2]; Table 4C): < 25 nM
Compound: NC(=O)c1c(F)cc(-c2ccc3nnn(Cc4ccc5ncccc5c4)c3n2)cc1F [Example 1003, 2,6-difluoro-4-(3-(quinolin-6-ylmethyl)-3H-[1,2,3]triazolo[4,5-b]pyridin-5-yl)benzamide 2,2,2-trifluoroacetate]

melting point: 160 to 162 °C
Compound: Cc1cc(-c2ccc3nnn(Cc4ccc5c(ccc[n+]5[O-])c4)c3n2)ccc1C(=O)NOCC(C)(C)O [Example 41, N-(2-Hydroxy-2-methyl-propoxy)-2-methyl-4-[3-(1-oxy-quinolin-6-ylmethyl)-3H-[1,2,3]triazolo[4,5-b]pyridin-5-yl]-benzamide]

inhibition at 0.1 µM ([1]; Table 4A): 75 to 100%
melting point: 175 to 177 °C
Compound: C[C@H](N)C(=O)OCCONC(=O)c1ccc(-c2ccc3nnn(Cc4ccc5ncccc5c4)c3n2)cc1Cl [Example 13, (S)-2-(2-chloro-4-(3-(quinolin-6-ylmethyl)-3H-[1,2,3]triazolo[4,5-b]pyridin-5-yl)benzamidooxy)ethyl 2-aminopropanoate]

GI50 (MKN-45; MKN-45, Table 4C): 50 to 100 nM
IC50 ([2]; Table 4C): < 25 nM
Compound: NC(=O)c1ccc(-c2ccc3ncn(Cc4cc5cccnc5cc4F)c3n2)cc1Cl [Example 1022, 2-chloro-4-(3-((7-fluoroquinolin-6-yl)methyl)-3H-imidazo[4,5-b]pyridin-5-yl)benzamide]
inhibition at 0.1 µM (MKN-45; MKN-45, Table 4C): 50 to 75%

inhibition ([1]; Table 4C): 75 to 100%
GI50 (MKN-45; MKN-45, Table 4C): 100 to 250 nM
IC50 ([2]; Table 4C): 50 to 100 nM
Compound: NC(=O)c1ccc(-c2ccc3ncn(Cc4ccc5ncccc5c4)c3n2)cc1Cl [Example 1008, 2-Chloro-4-(3-(quinolin-6-ylmethyl)-3H-imidazo[4,5-b]pyridin-5-yl)benzamide]
inhibition at 0.1 µM (MKN-45; MKN-45, Table 4C): 25 to 50%

inhibition at 0.1 µM ([1]; Table 4C): 25 to 50%
melting point: 239 to 241 °C
Compound: NC(=O)c1ccc(-c2ccc3ncn(Cc4cc5cccnc5cc4F)c3n2)cc1C(F)(F)F [Example 1026, 4-[3-(7-Fluoro-quinolin-6-ylmethyl)-3H-imidazo[4,5-b]pyridin-5-yl]-2-trifluoromethyl-benzamide]

GI50 (MKN-45; MKN-45, Table 4C): < 25 nM
IC50 ([2]; Table 4C): < 25 nM
Compound: NC(=O)c1c(F)cc(-c2ccc3nnn(Cc4cc5cccnc5cc4F)c3n2)cc1F [Example 1007, 2,6-difluoro-4-(3-((7-fluoroquinolin-6-yl)methyl)-3H-[1,2,3]triazolo[4,5-b]pyridin-5-yl)benzamide]
inhibition at 0.1 µM (MKN-45; MKN-45, Table 4C): 75 to 100%

inhibition ([1]; Table 4A): 75 to 100%
GI50 (MKN-45; MKN-45, Table 4A): 25 to 50 nM
IC50 ([2]; Table 4A): 25 to 50 nM
Compound: C/C(=N\NC(N)=S)c1ccc2nnn(Cc3cc4cccnc4cc3F)c2n1 [Example 57, 2-(1-(3-((7-fluoroquinolin-6-yl)methyl)-3H-[1,2,3]triazolo[4,5-b]pyridin-5-yl)ethylidene)hydrazinecarbothioamide]
inhibition at 0.1 µM (MKN-45; MKN-45, Table 4A): 50 to 75%
